The source of these data is PubChem BioAssay AID248 (DTP/NCI, 2004).

The assay has as its system L1210 leukemia ip in BDF1 mice, survival T/C. In words: NCI In Vivo Anticancer Drug Screen. Data for tumor model L1210 Leukemia (intraperitoneal) in B6D2F1 (BDF1) mice. As to conditions: endpoint: mean survival time, higher = longer survival. In a few lines:
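Mice bearing the transplanted tumor received compound or vehicle. Survival of the treated group was divided by that of the vehicle-treated control group to give the ratio.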

[1] abbreviates: dose: 200.0 mg/kg/injection, schedule: Q01DX001 (ip), vehicle: carboxymethylcellulose (CMC).
Where [2] appears, read: dose: 100.0 mg/kg/injection, schedule: Q04DX002 (ip), vehicle: saline with Tween-80.
[3] abbreviates: dose: 200.0 mg/kg/injection, schedule: Q04DX002 (ip), vehicle: saline with Tween-80.
[4] abbreviates: dose: 400.0 mg/kg/injection, schedule: Q04DX002 (ip), vehicle: saline with Tween-80.

Several values for one entry are separate records, joined by “and”; a condition that tells them apart may be missing. Equal entries are not always repeated. Toxic doses and inconclusive results are not listed.

As to `O=NN(CCCl)C(=O)Nc1ccc(I)cc1`, the T/C was 121 % of control (dose: 8.0 mg/kg/injection, schedule: Q01DX009 (ip), vehicle: carboxymethylcellulose (CMC)); 112 % of control (dose: 8.4 mg/kg/injection, schedule: Q01DX009 (ip), vehicle: carboxymethylcellulose (CMC)); 112 % of control (dose: 12.0 mg/kg/injection, schedule: Q01DX009 (ip), vehicle: carboxymethylcellulose (CMC)); 117 % of control (dose: 17.0 mg/kg/injection, schedule: Q01DX001 (ip), vehicle: carboxymethylcellulose (CMC)); 119 % of control (dose: 17.7 mg/kg/injection, schedule: Q01DX001 (ip), vehicle: carboxymethylcellulose (CMC)); 122 % of control (dose: 26.6 mg/kg/injection, schedule: Q01DX001 (ip), vehicle: carboxymethylcellulose (CMC)). The T/C (dose: 29.0 mg/kg/injection, schedule: Q01DX009 (ip), vehicle: carboxymethylcellulose (CMC)) is 150 % of control and 154 % of control; the T/C (dose: 44.0 mg/kg/injection, schedule: Q01DX009 (ip), vehicle: carboxymethylcellulose (CMC)) was 124 % of control; the T/C (dose: 60.0 mg/kg/injection, schedule: Q01DX001 (ip), vehicle: carboxymethylcellulose (CMC)) is 119 % of control; the T/C (dose: 66.0 mg/kg/injection, schedule: Q01DX009 (ip), vehicle: carboxymethylcellulose (CMC)) was 121 % of control and 90 % of control; the T/C (dose: 89.0 mg/kg/injection, schedule: Q01DX001 (ip), vehicle: carboxymethylcellulose (CMC)) is 153 % of control; the T/C (dose: 100.0 mg/kg/injection, schedule: Q01DX009 (ip), vehicle: carboxymethylcellulose (CMC)) is 98 % of control. For the same molecule, under setting [1], the T/C is 186 % of control.

With `O=C(c1ccccc1)C(O)(CCP(=O)(c1ccccc1)c1ccccc1)c1ccccc1` (stereo unspecified), the T/C reads like this: (dose: 75.0 mg/kg/injection, schedule: Q01DX001 (ip), vehicle: carboxymethylcellulose (CMC)) 88 % of control; (dose: 150.0 mg/kg/injection, schedule: Q01DX001 (ip), vehicle: carboxymethylcellulose (CMC)) 96 % of control.

On to `OC1(C2(O)CCCC2)CCCC1`, for which the T/C was 98 % of control (dose: 100.0 mg/kg/injection, schedule: Q04DX003 (ip), vehicle: saline with Tween-80); 98 % of control (dose: 200.0 mg/kg/injection, schedule: Q04DX003 (ip), vehicle: saline with Tween-80); 95 % of control (dose: 400.0 mg/kg/injection, schedule: Q04DX003 (ip), vehicle: saline with Tween-80).

Consider `N#CC(NC(N)=O)(c1ccccc1)c1ccccc1`, for which the T/C runs as follows: (dose: 50.0 mg/kg/injection, schedule: Q01DX001 (ip), vehicle: carboxymethylcellulose (CMC)) 91 % of control; (dose: 100.0 mg/kg/injection, schedule: Q01DX001 (ip), vehicle: carboxymethylcellulose (CMC)) 107 % of control; under setting [1], 96 % of control; (dose: 400.0 mg/kg/injection, schedule: Q01DX001 (ip), vehicle: carboxymethylcellulose (CMC)) 91 % of control.

For `C=C(N1CCCCC1)N1CCCCC1`, the T/C was 100 % of control under setting [2], 96 % of control under setting [3] and 116 % of control under setting [4].

Turning to `CC(C)(C)OC(=O)NC1CCCCC1`, the T/C reads like this: under setting [2], 111 % of control; under setting [3], 101 % of control; under setting [4], 104 % of control.

Regarding `CC(=O)C(=Cc1ccccc1Cl)C(C)=O`, the T/C runs as follows: (dose: 100.0 mg/kg/injection, schedule: Q01DX001 (ip), vehicle: Klucel (hydroxypropylcellulose) (HPC)) 104 % of control; (dose: 100.0 mg/kg/injection, schedule: Q04DX003 (ip), vehicle: Klucel (hydroxypropylcellulose) (HPC)) 94 % of control; (dose: 200.0 mg/kg/injection, schedule: Q01DX001 (ip), vehicle: Klucel (hydroxypropylcellulose) (HPC)) 98 % of control; (dose: 200.0 mg/kg/injection, schedule: Q04DX003 (ip), vehicle: Klucel (hydroxypropylcellulose) (HPC)) 91 % of control; (dose: 400.0 mg/kg/injection, schedule: Q01DX001 (ip), vehicle: Klucel (hydroxypropylcellulose) (HPC)) 90 % of control; (dose: 400.0 mg/kg/injection, schedule: Q04DX003 (ip), vehicle: Klucel (hydroxypropylcellulose) (HPC)) 100 % of control.

For `O=C1CCCCCCCCCCCCCC1`, the T/C (dose: 100.0 mg/kg/injection, schedule: Q04DX002 (ip), vehicle: Klucel (hydroxypropylcellulose) (HPC)) is 102 % of control; the T/C (dose: 200.0 mg/kg/injection, schedule: Q04DX002 (ip), vehicle: Klucel (hydroxypropylcellulose) (HPC)) was 102 % of control; the T/C (dose: 400.0 mg/kg/injection, schedule: Q04DX002 (ip), vehicle: Klucel (hydroxypropylcellulose) (HPC)) was 102 % of control.

For `Cc1ccc(S(=O)(=O)C[n+]2ccccc2)cc1`, the T/C runs as follows: under setting [2], 98 % of control; under setting [3], 94 % of control.

Turning to `C/C(CC(=O)O)=C(\C)C(=O)O`, the T/C reads like this: (dose: 100.0 mg/kg/injection, schedule: Q01DX009 (ip), vehicle: water) 95 % of control; (dose: 100.0 mg/kg/injection, schedule: Q04DX003 (ip), vehicle: water) 96 % of control; (dose: 200.0 mg/kg/injection, schedule: Q01DX009 (ip), vehicle: water) 91 % of control; (dose: 200.0 mg/kg/injection, schedule: Q04DX003 (ip), vehicle: water) 102 % of control; (dose: 400.0 mg/kg/injection, schedule: Q04DX003 (ip), vehicle: water) 104 % of control.

On to `CCCn1ccc(N)nc1=O`, for which the T/C is, setting by setting: (dose: 75.0 mg/kg/injection, schedule: Q01DX001 (ip), vehicle: Klucel (hydroxypropylcellulose) (HPC)) 116 % of control; (dose: 150.0 mg/kg/injection, schedule: Q01DX001 (ip), vehicle: Klucel (hydroxypropylcellulose) (HPC)) 119 % of control; (dose: 300.0 mg/kg/injection, schedule: Q01DX001 (ip), vehicle: Klucel (hydroxypropylcellulose) (HPC)) 111 % of control.

For the molecule `Cc1ccc(C)c(/C(=N\N=C(N)N)C2CC2)c1`, the T/C is 103 % of control (dose: 15.0 mg/kg/injection, schedule: Q01DX Z (ip), vehicle: methylcellulose (MC)); 99 % of control (dose: 30.0 mg/kg/injection, schedule: Q01DX Z (ip), vehicle: methylcellulose (MC)); 103 % of control (dose: 30.0 mg/kg/injection, schedule: Q01DX Z (oral), vehicle: methylcellulose (MC)); 100 % of control (dose: 60.0 mg/kg/injection, schedule: Q01DX Z (ip), vehicle: methylcellulose (MC)); 94 % of control (dose: 60.0 mg/kg/injection, schedule: Q01DX Z (oral), vehicle: methylcellulose (MC)); 100 % of control (dose: 120.0 mg/kg/injection, schedule: Q01DX Z (oral), vehicle: methylcellulose (MC)).

For `Cc1cc(C)[c]([Hg][Cl])c(C)c1`, the T/C runs as follows: (dose: 6.0 mg/kg/injection, schedule: Q01DX009 (ip), vehicle: saline with Tween-80) 100 % of control; (dose: 6.0 mg/kg/injection, schedule: Q04DX003 (ip), vehicle: saline with Tween-80) 94 % of control; (dose: 12.0 mg/kg/injection, schedule: Q01DX009 (ip), vehicle: saline with Tween-80) 87 % of control; (dose: 12.0 mg/kg/injection, schedule: Q04DX003 (ip), vehicle: saline with Tween-80) 103 % of control; (dose: 25.0 mg/kg/injection, schedule: Q01DX009 (ip), vehicle: saline with Tween-80) 90 % of control; (dose: 25.0 mg/kg/injection, schedule: Q04DX003 (ip), vehicle: saline with Tween-80) 92 % of control.

As to `COc1cccc(CC(C(=O)c2ccc(O)cc2)c2ccccc2)c1` (stereo unspecified), the T/C is 97 % of control (dose: 100.0 mg/kg/injection, schedule: Q01DX001 (ip), vehicle: saline); 97 % of control (dose: 200.0 mg/kg/injection, schedule: Q01DX001 (ip), vehicle: saline); 101 % of control (dose: 400.0 mg/kg/injection, schedule: Q01DX001 (ip), vehicle: saline).

On to `C=C1C(=O)OC2/C=C(\C)CC(O)/C=C(/C)CCC12` (stereo unspecified), for which the T/C runs as follows: (dose: 12.5 mg/kg/injection, schedule: Q04DX003 (ip), vehicle: Klucel (hydroxypropylcellulose) (HPC)) 96 % of control; (dose: 25.0 mg/kg/injection, schedule: Q04DX003 (ip), vehicle: Klucel (hydroxypropylcellulose) (HPC)) 105 % of control; (dose: 50.0 mg/kg/injection, schedule: Q04DX003 (ip), vehicle: Klucel (hydroxypropylcellulose) (HPC)) 100 % of control.

With `CC1CCCC/C1=N/NC(=O)c1ccccc1` (stereo unspecified), the T/C (dose: 50.0 mg/kg/injection, schedule: Q01DX009 (ip), vehicle: saline with Tween-80) was 95 % of control; the T/C (dose: 100.0 mg/kg/injection, schedule: Q01DX009 (ip), vehicle: saline with Tween-80) was 110 % of control; the T/C (dose: 200.0 mg/kg/injection, schedule: Q01DX009 (ip), vehicle: saline with Tween-80) was 108 % of control.

As for `CC(=O)C(C#N)C(C)=O.CC(=O)C(C#N)C(C)=O.[Mn]`, the T/C is 107 % of control (dose: 100.0 mg/kg/injection, schedule: Q01DX009 (ip), vehicle: saline); 105 % of control (dose: 100.0 mg/kg/injection, schedule: Q04DX003 (ip), vehicle: saline); 102 % of control (dose: 200.0 mg/kg/injection, schedule: Q04DX003 (ip), vehicle: saline).
